System: 292921-168-R-J2-PDC KRAS tumor spheroid viability
Test: Anticancer human tumor 292921-168-R-J2-PDC patient-derived pancreatic carcinoma cell line growth inhibition [KRAS2]
Details: spheroids with HUVEC and MSC; for IC50: curve of first compound; for viability, T/C: stronger effect = lower value
Procedure, shortened: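 Combination screen of spheroid viability in tumor-cell co-cultures with endothelial (HUVEC) and mesenchymal stem cell stroma. Each agent was tested in half-log dilutions, topping at clinical Cmax or at 10 microM without a known Cmax.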

[1] = second compound 0.1 µM, first compound 0.0316 µM
[2] = second compound 0.1 µM, first compound 0.1 µM
[3] = second compound 0.1 µM, first compound 0.316 µM
[4] = second compound 0.1 µM, first compound 1 µM
[5] = second compound 0.1 µM, first compound 3.16 µM
[6] = second compound 0.1 µM, first compound 10 µM
[7] = second compound 0.316 µM, first compound 0.0316 µM
[8] = second compound 0.316 µM, first compound 0.1 µM
[9] = second compound 0.316 µM, first compound 0.316 µM
[10] = second compound 0.316 µM, first compound 1 µM
[11] = second compound 0.316 µM, first compound 3.16 µM
[12] = second compound 0.316 µM, first compound 10 µM
[13] = second compound 1 µM, first compound 0.0316 µM
[14] = second compound 1 µM, first compound 0.1 µM
[15] = second compound 1 µM, first compound 0.316 µM
[16] = second compound 1 µM, first compound 1 µM
[17] = second compound 1 µM, first compound 3.16 µM
[18] = second compound 1 µM, first compound 10 µM
[19] = second compound 3.16 µM, first compound 0.0316 µM
[20] = second compound 3.16 µM, first compound 0.1 µM
[21] = second compound 3.16 µM, first compound 0.316 µM
[22] = second compound 3.16 µM, first compound 1 µM
[23] = second compound 3.16 µM, first compound 3.16 µM
[24] = second compound 3.16 µM, first compound 10 µM
[25] = second compound 10 µM, first compound 0.0316 µM
[26] = second compound 10 µM, first compound 0.1 µM
[27] = second compound 10 µM, first compound 0.316 µM
[28] = second compound 10 µM, first compound 1 µM
[29] = second compound 10 µM, first compound 3.16 µM
[30] = second compound 10 µM, first compound 10 µM
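Note: drug exposure lasted seven days after spheroids formed for three days.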
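Throughout, for viability, T/C: percent of DMSO vehicle control viability which is 100%.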

Row | SMILES | IC50 (second compound 0.1 µM) | IC50 (second compound 0.316 µM) | IC50 (second compound 1 µM) | IC50 (second compound 3.16 µM) | viability, T/C [1] | viability, T/C [2] | viability, T/C [3] | viability, T/C [4] | viability, T/C [5] | viability, T/C [7] | viability, T/C [8] | viability, T/C [9] | viability, T/C [10] | viability, T/C [11] | viability, T/C [13] | viability, T/C [14] | viability, T/C [15] | viability, T/C [16] | viability, T/C [17] | viability, T/C [19] | also measured
1 | CC(C)NCC(C(=O)N1CCN(c2ncnc3c2C(C)CC3O)CC1)c1ccc(Cl)cc1 (stereo not given) + COc1cc2nc(C)nc(NC(C)c3cc(N)cc(C(F)(F)F)c3)c2cc1OC1CCOC1 | 8.85 µM | 8.1 µM | 5.01 µM | 1.25 µM | 87.5% | 84.8% | 78.8% | 77.8% | 77.4% | 82.7% | 82% | 80.5% | 75.3% | 74.4% | 83.2% | 71.1% | 63.8% | 63.2% | 60.9% | 58.1% | IC50 (second compound 10 µM): < 0.0316 µM; viability, T/C [6]: 46.3%; viability, T/C [12]: 44.7%; viability, T/C [18]: 40.2%; viability, T/C [20]: 51.1%; viability, T/C [21]: 50.2%; viability, T/C [22]: 50.4%; viability, T/C [23]: 46.9%; viability, T/C [24]: 30.6%; viability, T/C [25]: 20.3%; viability, T/C [26]: 19.7%; viability, T/C [27]: 18.6%; viability, T/C [28]: 18%; viability, T/C [29]: 15.4%; viability, T/C [30]: 9.75%
2 | CCNC(=O)CC1N=C(c2ccc(Cl)cc2)c2cc(OC)ccc2-n2c(C)nnc21 (stereo not given) + C=CC(=O)N1CCN(c2nc(OCC3CCCN3C)nc3c2CCN(c2cccc4cccc(C)c24)C3)CC1CC#N | 1.23 µM | 0.644 µM | < 0.0316 µM | < 0.0316 µM | 94% | 90.2% | 59.1% | 53.7% | 48% | 106% | 92.2% | 59.2% | 45.1% | 34.2% | 42.4% | 33% | 26.1% | 18.4% | 13.7% | 0.21% | IC50 (second compound 0.0316 µM): > 10 µM; viability, T/C (second compound 0.0316 µM, first compound 0.0316 µM): 104%; viability, T/C (second compound 0.0316 µM, first compound 0.1 µM): 99.5%; viability, T/C (second compound 0.0316 µM, first compound 0.316 µM): 69.9%; viability, T/C (second compound 0.0316 µM, first compound 1 µM): 63.6%; viability, T/C (second compound 0.0316 µM, first compound 3.16 µM): 53.9%; viability, T/C (second compound 0.0316 µM, first compound 10 µM): 49.2%; viability, T/C [6]: 34.3%; viability, T/C [12]: 29.2%; viability, T/C [18]: 8.19%; viability, T/C [20]: 0.11%; viability, T/C [21]: 0.1%; viability, T/C [22]: 0.1%; viability, T/C [23]: 0.1%; viability, T/C [24]: 0.26%
3 | O=C(c1cc(Cc2n[nH]c(=O)c3ccccc23)ccc1F)N1CCN(C(=O)C2CC2)CC1 + COc1cc2nc(C)nc(NC(C)c3cc(N)cc(C(F)(F)F)c3)c2cc1OC1CCOC1 | > 10 µM | 9.62 µM | 9.77 µM | 6.44 µM | 111% | 119% | 108% | 113% | 99.8% | 111% | 105% | 98.2% | 102% | 92.1% | 130% | 116% | 118% | 119% | 88.7% | 86.7% | IC50 (second compound 10 µM): 9.86 µM; viability, T/C [6]: 52.1%; viability, T/C [12]: 48%; viability, T/C [18]: 49.2%; viability, T/C [20]: 82.5%; viability, T/C [21]: 76%; viability, T/C [22]: 75.7%; viability, T/C [23]: 63.2%; viability, T/C [24]: 41.6%; viability, T/C [25]: 83.8%; viability, T/C [26]: 84.3%; viability, T/C [27]: 77.9%; viability, T/C [28]: 73.5%; viability, T/C [29]: 85%; viability, T/C [30]: 49.8%
4 | CC1COCCN1c1cc(-c2ccnn2C)c2ccnc(-c3ccn[nH]3)c2n1 (stereo not given) + CC1OCC2(CCN(c3cnc(Sc4ccnc(N)c4Cl)c(N)n3)CC2)C1N | < 0.01 µM | < 0.01 µM | < 0.01 µM | < 0.01 µM | 23.8% | 15.9% | 15% | 15% | 16.2% | 20.6% | 14.6% | 13% | 13.3% | 14.5% | 21.9% | 13.4% | 12.3% | 12.3% | 12.3% | 17.8% | IC50 (second compound 10 µM): < 0.01 µM; viability, T/C (second compound 0.1 µM, first compound 0.01 µM): 44.6%; viability, T/C (second compound 0.316 µM, first compound 0.01 µM): 38.9%; viability, T/C (second compound 1 µM, first compound 0.01 µM): 33.5%; viability, T/C (second compound 3.16 µM, first compound 0.01 µM): 28.2%; viability, T/C [20]: 13.4%; viability, T/C [21]: 11%; viability, T/C [22]: 10.2%; viability, T/C [23]: 10.9%; viability, T/C (second compound 10 µM, first compound 0.01 µM): 25.3%; viability, T/C [25]: 18.2%; viability, T/C [26]: 13.1%; viability, T/C [27]: 10.2%; viability, T/C [28]: 10.7%; viability, T/C [29]: 9.89%

Source: PubChem BioAssay AID1963870 (Molecular Pharmacology Branch, DTP, NCI, 2024)
